# Data: US20140322344A1, “VACCINE PREPARATION FOR CANCER TREATMENT” (priority 2011, published 2014)
# Experiments:
# [1] = test system: CD8-positive killer T cells and CD4-positive helper T cells specific to MAGE-A4 epitopes; experiment: Induction of antigen-specific T cells in immunized mice, spleen cells, intracellular cytokine staining (MAGE-A4 peptides); assay type: in vivo, BALB/c mice; details: s.c. twice at one week intervals, FIG. 1
# Description: […] For administration, they were subcutaneously injected into the backs of the mice twice at one week intervals. For one dose of the hydrophobized polysaccharide-synthetic long peptide complex, a dosage corresponding to 0.1 mg of the synthetic long peptide complex was administered. Either the CpG oligo DNA or the poly-IC RNA as the immunopotentiating agent was subcutaneously injected at a dose of 0.05 mg proximal to the administration site of the hydrophobized polysaccharide-synthetic long peptide.
# One week after the final administration, spleen cells were isolated from the treated mice in the following manner. The spleen was isolated from the mouse and washed in RPMI1640 medium to remove blood. The spleen was ground using a slide glass, and then the free cells were collected in RPMI1640 medium. After centrifugation (400×g, 5 min., 4° C.), the supernatant was removed, to which 2 mL of ACK solution was added to treat the cells for 1 minute. 18 mL of RPMI1640 medium was added and centrifugation (400×g, 5 min., 4° C.) was carried out. […] After the number of the cells was counted, the cells were suspended in RPMI1640 medium containing 10% fetal bovine serum (FBS) so that the cell concentration was 1×10^7 cells/mL. […]
# The cells were analyzed with a flow cytometer (FACS Canto II, BD Biosciences Company) using the associated analysis software (FACSDiva).
# [2] = test system: mouse colon cancer cells CT 26 into which the MAGE-A4 gene was stably introduced; experiment: Tumor rejection test, CT26/MAGE-A4; assay type: in vivo, BALB/c mice; details: co-administered s.c. with CpG oligo DNA 7 days before tumor implantation; p<0.0001; FIG. 7
# Description: A mouse colon cancer cell CT26 cell line into which the MAGE-A4 gene was stably introduced or a mouse fibrosarcoma CMS5a cell line which expresses mERK2 was subcutaneously implanted in the following manner. The CT26 cell line or CMS5a cell line, which had been cultured in a T75 flask (Nunc Co., Ltd.), was washed with PBS; then the cells were removed with PBS containing 0.5% trypsin and collected in RPMI1640 medium containing 10% FBS. After centrifugation (400×g, 5 min., 4° C.), the supernatant was removed, washed twice with RPMI1640 medium, then re-suspended in RPMI1640 medium at a concentration of 1×10^6 cells/100 μL, and subcutaneously implanted into BALB/c mice in an amount of 100 μL/individual. Subsequently, their tumor areas were measured over time. A comparison of the data in the tumor rejection test was performed according to Student's t-test using MS Excel (Microsoft).
substance,measurement,setting,value
"MAGE-A4 p264:40: synthetic long peptide, 40 aa, from MAGE-A4, SEQ ID NO: 1: GSNPARYEFLWGPRALAETSYVKVLEHVVRVNARVRIAYP (Human; MAGE-A4 p26440)",induction of killer T cells and helper T cells specific to the peptide,"[1]; administered alone, no immunopotentiating agent",are not induced
same,induction of antigen-specific killer T cells and helper T cells,[1]; co-administered with CpG oligo DNA,the intended T cells are not induced
same,tumor growth inhibition as compared to PBS administration group,[2],significant inhibition
